Measurements as given in patent US8501813B2, “γ-secretase inhibitor” (Kabushiki Kaisha Yakult Honsha, priority 2007, dated 2013).
Like-named read-outs stand apart in the source and are kept apart here.

Molecular target: γ-secretase (Homo sapiens, UniProt P49768)
Assay: Aβ secretion by C99 cells (HEK293 stably expressing APP-C99), γ-secretase inhibitory effect, Aβ ELISA of culture supernatant
Assay type: cell-based
Conditions: for activity at 0.3 µM / activity at 1 µM / activity at 3 µM / activity at 10 µM / activity at 0.03 µM / activity at 0.1 µM: HEK293, 24 h; for activity at 0.3 µM: exposure 0.3 μmol/L; for activity at 1 µM: exposure 1 μmol/L; for activity at 3 µM: exposure 3 μmol/L; for activity at 10 µM: exposure 10 μmol/L; for activity at 0.03 µM: exposure 0.03 μmol/L; for activity at 0.1 µM: exposure 0.1 μmol/L; for inhibition at 0.3 µM / inhibition at 10 µM: HEK293, read-out: Aβ40 inhibitory rate (in terms of the inhibitory rate, from secretion rate); for inhibition at 0.3 µM: exposure concentration 0.3 μM; for inhibition at 10 µM: exposure concentration 10 μM
From the text: HEK293 cells (ATCC) were transfected with APP C99 pcDNA3.1 (the nucleotide sequence of its coding region is shown in SEQ ID NO: 1) (J. Biol. Chem., 2003, 278, 49448-49458). Cell strains (C99 cells) confirmed to stably express APP-C99 (artificial APP fragment that originally lacked a polypeptide portion to be cleaved by α- or β-secretase at the first stage in the two-stage reaction of Aβ production from APP) were used to study the γ-secretase inhibitory effects of four test substances (TLVM-5, TLVM-7, TLVM-8, and TLVM-9) in vitro.
In the present test, a medium used for the C99 cells was 500 mL of a Dulbecco's Modified Eagle's Medium (DMEM, Sigma-Aldrich Corp.) supplemented with 55 ml of fetal bovine serum (Biosource), 5.5 ml of MEM non-essential amino acids (Gibco), and 5.5 ml of penicillin/streptomycin (Gibco).
The C99 cells were suspended at a concentration of 5×10^4 cells/ml in the medium. The suspension was added at a concentration of 1 ml (5×10^4 cells)/well to a 24-well collagen plate (Akita Sumitomo Bakelite Co., Ltd.) and cultured for 3 days. Then, the medium in the wells was removed, and the wells were washed with a medium (1 ml/well). The medium was removed, and a fresh medium was then added thereto at a concentration of 0.4 ml/well. The cells were exposed to the test substances and positive controls and incubated for 24 hours, and the culture supernatants were collected. The positive controls used were L-685,458 (CALBIOCHEM) and Boc-Leu-Val-Met-Leu-OMe (hereinafter, referred to as LVML-1) disclosed in Example 1 of Patent Document 1 (WO03/091278). The exposure concentrations were set to four concentrations, 0.3, 1, 3, and 10 μmol/L, for all the test substances and the positive controls. The concentrations of Aβ (1-40) and Aβ (1-42) in the culture supernatants were measured using Human Amyloid β (1-40) (N) Assay Kit (L)-IBL and Human Amyloid β (1-42) (N) Assay Kit (L)-IBL (Immuno-Biological Laboratories, Co., Ltd.). The amounts of Aβ (1-40) and Aβ (1-42) secreted were calculated by subtracting the concentrations of Aβ (1-40) and Aβ (1-42) originally contained in the medium before the C99 cell inoculation, from the measured concentrations thereof, respectively. Moreover, when the Aβ secretion rate of a negative control (5% DMSO-containing medium, resulting in 1% DMSO at the final concentration) is defined as 100%, Aβ secretion rates at each concentration of the test substances and the positive controls were calculated.
The TLVM-5, TLVM-7, TLVM-8, and TLVM-9 confirmed in Example 8 to have strong inhibitory activities against γ-secretase activities were subjected to an additional experiment at low concentrations (exposure concentrations were set to three concentrations, […], for the test substances and to four concentrations, 0.1, 0.3, 1, and 3 μmol/L, for the positive control).
Moreover, Aβ secretion rates at two concentrations of the test substance that bracket the concentration at which Aβ secretion was inhibited by 50% (IC50) were used to calculate IC50 according to the following equation: IC50:10^[LOG(A/B)*(50−C)/(D−C)+LOG(B)],wherein
A: of the two points that bracket 50% inhibition, the higher concentration of the test substance,
B: of the two points that bracket 50% inhibition, the lower concentration of the test substance,
C: secretion rate (%) at the concentration B, and
D: secretion rate (%) at the concentration A.

[1] = Example 8, 24 h, negative control = 100%, read-out: Aβ (1-40) secretion rate of C99 cells
[2] = Example 8, 24 h, read-out: Aβ (1-42) secretion rate of C99 cells
[3] = Example 8, 24 h, read-out: Aβ [(1-40) + (1-42)] secretion rate of C99 cells
[4] = Example 8, 24 h, read-out: Aβ (1-40) secretion rate of C99 cells
[5] = Example 9 (low concentrations), read-out: Aβ (1-40) secretion rate of C99 cells
[6] = Example 9, read-out: Aβ (1-42) secretion rate of C99 cells
[7] = Example 9, read-out: Aβ [(1-40) + (1-42)] secretion rate of C99 cells
[8] = Example 9, read-out: Aβ (1-40) secretion rate of C99 cells

| SMILES | activity at 0.3 µM [2] | activity at 0.3 µM [3] | activity at 1 µM [4] | activity at 1 µM [2] | activity at 1 µM [3] | activity at 3 µM [4] | activity at 3 µM [2] | activity at 3 µM [3] | activity at 10 µM [3] | activity at 0.03 µM [5] | activity at 0.03 µM [6] | activity at 0.03 µM [7] | activity at 0.1 µM [8] | activity at 0.1 µM [6] | activity at 0.1 µM [7] | activity at 0.3 µM [8] | activity at 0.3 µM [6] | activity at 0.3 µM [7] | inhibition at 0.3 µM | inhibition at 10 µM | other results |
| --- | --- | --- | --- | --- | --- | --- | --- | --- | --- | --- | --- | --- | --- | --- | --- | --- | --- | --- | --- | --- | --- |
| CCCCNC(=O)C(CCSC)NC(=O)C(NC(=O)C(CC(C)C)CC(O)C(NC(=O)OC(C)(C)C)C(C)O)C(C)C [TLVM-7, [5S-(tert-butoxycarbonylamino)-4R,6R-dihydroxy-2R-(2-methylpropyl)heptanoyl]-L-valyl-L-methionine n-butylamide] | 15% | 23% | 8% | 55% | 10% | 1% | 67% | 4% | 2% | 124% | 156% | 126% | 42% | 94% | 44% | 13% | 33% | 14% | ≥ 76% | ≥ 97% | activity at 0.3 µM [1]: ≤ 24%; activity at 10 µM [4]: ≤ 3%; activity at 10 µM [2]: 0% |
| CSCCC(NC(=O)C(NC(=O)C(CC(C)C)CC(O)C(NC(=O)OC(C)(C)C)C(C)O)C(C)C)C(=O)NCc1ccc(F)cc1 [TLVM-9, [5S-(tert-butoxycarbonylamino)-4R,6R-dihydroxy-2R-(2-methylpropyl)heptanoyl]-L-valyl-L-methionine 4-fluorobenzylamide] | 2% | 15% | 8% | 11% | 8% | 5% | 37% | 7% | 3% | 94% | 97% | 94% | 32% | 67% | 33% | 17% | 49% | 18% | ≥ 76% | ≥ 97% | activity at 0.3 µM [1]: ≤ 24%; activity at 10 µM [4]: ≤ 3%; activity at 10 µM [2]: 0% |
| CSCCC(NC(=O)C(NC(=O)C(CC(C)C)CC(O)C(NC(=O)OC(C)(C)C)C(C)O)C(C)C)C(=O)NC(C)c1ccccc1 [TLVM-8, [5S-(tert-butoxycarbonylamino)-4R,6R-dihydroxy-2R-(2-methylpropyl)heptanoyl]-L-valyl-L-methionine (S)-α-methylbenzylamide] | 7% | 7% | 1% | 11% | 1% | 2% | 61% | 5% | 1% | 53% | 71% | 54% | 16% | 52% | 17% | 7% | 33% | 8% | ≥ 76% | ≥ 97% | activity at 10 µM [2]: 0% |
| CSCCC(NC(=O)C(NC(=O)C(CC(C)C)CC(O)C(NC(=O)OC(C)(C)C)C(C)O)C(C)C)C(=O)NCc1ccccc1 [TLVM-5, [5S-(tert-butoxycarbonylamino)-4R,6R-dihydroxy-2R-(2-methylpropyl)heptanoyl]-L-valyl-L-methionine benzylamide] |  | 14% | 5% |  | 8% | 4% |  | 7% | 6% | 100% | 131% | 101% | 39% | 74% | 40% | 15% | 43% | 16% | ≥ 76% | ≥ 97% | activity at 10 µM [4]: ≤ 3% |
